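Method: 48-hour compound exposure of cells in 96-well plates, five concentrations, linear interpolation of endpoints. GI50 marks 50% less growth.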 Active and inactive are the calls of the source. Rule as the data show it: active = GI50 up to about 1.1 µM and inactive = higher.
Assays:
Experiment in all cases: NCI tumour cell line growth inhibition, 48 h
HOP-92 = system: HOP-92
SK-MEL-5 = system: SK-MEL-5
M19-MEL = system: M19-MEL
KM-20L2 = system: KM-20L2
HT-29 = system: HT-29
RXF 631 = system: RXF 631
COLO 205 = system: COLO 205
SNB-78 = system: SNB-78
CCRF-CEM = system: CCRF-CEM
ACHN = system: ACHN
NCI-H23 = system: NCI-H23
UO-31 = system: UO-31
DMS-114 = system: DMS-114
RXF 393 = system: RXF 393
MDA-MB-435 = system: MDA-MB-435
OVCAR-3 = system: OVCAR-3
SK-OV-3 = system: SK-OV-3
K562 = system: K562
DMS-273 = system: DMS-273
HL-60 = system: HL-60
UACC-257 = system: UACC-257
SK-MEL-2 = system: SK-MEL-2
HCT-15 = system: HCT-15
PC-3 = system: PC-3
A498 = system: A498
HOP-18 = system: HOP-18
OVCAR-8 = system: OVCAR-8
LOX IMVI = system: LOX IMVI
KM12 = system: KM12
Hs-578T = system: Hs-578T
M14 = system: M14
SN12C = system: SN12C
BT-549 = system: BT-549
T47D = system: T47D
Malme-3M = system: Malme-3M
IGROV-1 = system: IGROV-1
RPMI-8226 = system: RPMI-8226
HCC 2998 = system: HCC 2998
XF498 = system: XF498
SR = system: SR
SNB-19 = system: SNB-19
EKVX = system: EKVX
MDA-MB-231 = system: MDA-MB-231
SF-268 = system: SF-268
NCI-H460 = system: NCI-H460
OVCAR-4 = system: OVCAR-4
MOLT-4 = system: MOLT-4
NCI/ADR-RES = system: NCI/ADR-RES
HOP-62 = system: HOP-62
U-251 = system: U-251
SF-295 = system: SF-295
NCI-H522 = system: NCI-H522
NCI-H226 = system: NCI-H226
SW-620 = system: SW-620
TK-10 = system: TK-10
DU-145 = system: DU-145
786-0 = system: 786-0
DLD-1 = system: DLD-1
SNB-75 = system: SNB-75
UACC-62 = system: UACC-62
SF-539 = system: SF-539
CAKI-1 = system: CAKI-1
SK-MEL-28 = system: SK-MEL-28
LXFL 529 = system: LXFL 529
A549 = system: A549
HCT-116 = system: HCT-116
OVCAR-5 = system: OVCAR-5

Measured: GI50

COc1ccc2c[n+](C)c3c4cc(OC)c(OC)cc4ccc3c2c1
> 41.9 µM: HCT-15
inactive: HOP-92 10.1 µM | SK-MEL-5 14.7 µM | M19-MEL 12.4 µM | KM-20L2 3.52 µM | HT-29 4.1 µM | RXF 631 15.5 µM | SNB-78 12.2 µM | CCRF-CEM 3.37 µM | ACHN 64.6 µM | NCI-H23 3.12 µM | UO-31 44 µM | RXF 393 15.6 µM | MDA-MB-435 13.7 µM | OVCAR-3 3.9 µM | SK-OV-3 2.99 µM | K562 2.43 µM | DMS-273 2.28 µM | HL-60 8.07 µM | UACC-257 20.7 µM | SK-MEL-2 10.9 µM | A498 45.8 µM | HOP-18 28.6 µM | OVCAR-8 2.14 µM | LOX IMVI 4.72 µM | KM12 1.43 µM | Hs-578T 2.6 µM | M14 15.7 µM | SN12C 2.02 µM | BT-549 2.85 µM | T47D 2.73 µM | Malme-3M 7.6 µM | IGROV-1 4.89 µM | RPMI-8226 2.96 µM | HCC 2998 8.11 µM | XF498 9.84 µM | SR 2.87 µM | SNB-19 2.52 µM | EKVX 13.1 µM | SF-268 1.79 µM | NCI-H460 3.91 µM | OVCAR-4 8.09 µM | MOLT-4 3.85 µM | NCI/ADR-RES > 100 µM | HOP-62 8.02 µM | U-251 1.49 µM | SF-295 5.13 µM | NCI-H522 2.03 µM | NCI-H226 15.5 µM | SW-620 2.23 µM | TK-10 17.8 µM | DU-145 10.3 µM | 786-0 2.39 µM | DLD-1 10.8 µM | SNB-75 2.47 µM | UACC-62 18.5 µM | SF-539 10.7 µM | CAKI-1 42.3 µM | SK-MEL-28 18.9 µM | LXFL 529 1.21 µM | HCT-116 4.37 µM | OVCAR-5 8.63 µM
active: COLO 205 0.776 µM | DMS-114 1.05 µM | PC-3 0.849 µM | MDA-MB-231 0.944 µM | A549 0.53 µM

CC(=O)c1ccc(-c2ccc(C(C)=O)s2)s1
inactive: HOP-92 > 100 µM | SK-MEL-5 > 100 µM | M19-MEL > 100 µM | KM-20L2 > 100 µM | HT-29 > 100 µM | RXF 631 > 100 µM | COLO 205 > 100 µM | SNB-78 > 100 µM | CCRF-CEM > 100 µM | ACHN > 100 µM | NCI-H23 > 100 µM | UO-31 > 100 µM | DMS-114 1.43 µM | RXF 393 > 100 µM | OVCAR-3 > 100 µM | SK-OV-3 > 100 µM | K562 > 100 µM | DMS-273 > 100 µM | HL-60 > 100 µM | UACC-257 > 100 µM | SK-MEL-2 > 100 µM | A498 1.94 µM | HOP-18 > 100 µM | OVCAR-8 > 100 µM | LOX IMVI > 100 µM | KM12 > 100 µM | M14 > 100 µM | SN12C > 100 µM | Malme-3M > 100 µM | IGROV-1 > 100 µM | RPMI-8226 > 100 µM | HCC 2998 > 100 µM | XF498 > 100 µM | SR > 100 µM | SNB-19 > 100 µM | EKVX > 100 µM | SF-268 1.87 µM | NCI-H460 > 100 µM | OVCAR-4 > 100 µM | MOLT-4 > 100 µM | HOP-62 > 100 µM | U-251 > 100 µM | SF-295 > 100 µM | NCI-H522 > 100 µM | NCI-H226 19 µM | SW-620 > 100 µM | TK-10 > 100 µM | 786-0 > 100 µM | DLD-1 > 100 µM | SNB-75 > 100 µM | UACC-62 > 100 µM | SF-539 > 100 µM | CAKI-1 > 100 µM | SK-MEL-28 1.81 µM | LXFL 529 > 100 µM | A549 > 100 µM | HCT-116 > 100 µM | OVCAR-5 > 100 µM
> 100 µM: HCT-15
